Literature values as cited in US20080124273A1, “Novel cationic metal complex radiopharmaceuticals” (priority 2004, published 2008).

Columns and labels:
[1] = background statement
[2] = background statement; remark: listed apart in the source

Row | first-pass extraction [1] | uptake in liver and lungs [1] | T/B ratios [1] | heart uptake [1] | lipophilicity [2] | SMILES
1 | low | high |  |  |  | [C-]#[N+]CC(C)(C)OC.[C-]#[N+]CC(C)(C)OC.[C-]#[N+]CC(C)(C)OC.[C-]#[N+]CC(C)(C)OC.[C-]#[N+]CC(C)(C)OC.[C-]#[N+]CC(C)(C)OC.[Tc] [^99mTc-Sestamibi]
2 |  |  | poor | very low | high | CCOCCC[P]1(CCCOCC)CCN(CCOCC)CC[P](CCCOCC)(CCCOCC)[99Tc+]12(#[N])[S]C(N(CCOCC)CCOCC)=[S]2 [^99mTcN-DBODC6, [^99mTc(N)(N(CH2CH2OEt)2(PNP6)]^+]
